Reference: patent US7220753B2, “2,7-substituted octahydro-1H-pyrido[1,2-a]pyrazine derivatives as ligands for serotonin receptors” (Pfizer Inc., priority 1994, dated 2007)
Where a name gives a salt, the structure may show the parent alone.

SMILES | melting point
Clc1cncc(N2CCN3C[C@H](COc4ccccc4)CC[C@H]3C2)n1 (racemic) [Example 31, (7RS,9aSR)-7-Phenoxymethyl-2-(6-chloropyrazin-2-yl)-2,3,4,6,7,8,9,9a-octahydro-1H-pyrido[1,2-a]pyrazine] | 247 °C (dec.)
O=C1Cc2ccccc2N1C[C@@H]1CC[C@H]2CN(c3ncccn3)CCN2C1 [Example 44, 1-[(7R,9aS)-2-(Pyrimidin-2-yl)-2,3,4,6,7,8,9,9a-octahydro-1H-pyrido[1,2-a]pyrazin-7-ylmethyl]-1,3-dihydro-indol-2-one] | 174 to 176 °C
COc1cccc(N2CCN3C[C@H](COc4ccc(F)cc4)CCC3C2)n1 (stereo partly drawn) [Example 27, (7RS,9aSR)-7-(4-Fluorophenoxy)methyl-2-(6-methoxypyridin-2-yl)-2,3,4,6,7,8,9,9a octahydro-1H-pyrido[1,2-a]pyrazine] | 228 to 230 °C
N#Cc1cc(F)ccc1N1CCN2C[C@H](COc3ccc(F)cc3)CC[C@H]2C1 (racemic) [Example 23, (7RS,9aSR)-7-(4-Fluorophenoxy)methyl-2-(2-cyano-4-fluorophenyl)-2,3,4,6,7,8,9,9a-octahydro-1H-pyrido[1,2-a]pyrazine] | 235 to 240 °C
c1ccc(O[C@@H]2CC[C@H]3CN(c4ncccn4)CCN3C2)cc1 (racemic) | 147 to 148 °C
Fc1ccc(OC[C@@H]2CC[C@H]3CN(c4ccccn4)CCN3C2)cc1 [Example 18, (7R,9aS)-7-(4-Fluorophenoxy)methyl-2-(pyridin-2-yl)-2,3,4,6,7,8,9,9a-octahydro-1H-pyrido[1,2-a]pyrazine] | 261 to 263 °C
Fc1cnc(N2CCN3C[C@H](Cn4ccc5cc(F)ccc54)CC[C@H]3C2)nc1 [Example 43, (7R,9aS)-7-(5-Fluoroindol-1-yl)methyl-2-(5-fluoropyrimidin-2-yl)-2,3,4,6,7,8,9,9a-octahydro-1H-pyrido[1,2-a]pyrazine] | 180 to 182 °C
c1ccc(OC[C@@H]2CC[C@H]3CN(c4ccncn4)CCN3C2)cc1 (racemic) | > 265 °C (dec.)
Fc1ccc(OC[C@@H]2CC[C@H]3CN(c4ccc(F)cn4)CCN3C2)cc1 (racemic) [Example 28, (7RS,9aSR)-7-(4-Fluorophenoxy)methyl-2,3,4,6,7,8,9,9a-octahydro-2-(5-fluoropyridin-2-yl)-1H-pyrido[1,2-a]pyrazine] | 214 to 215 °C
c1ccc(OC[C@@H]2CC[C@H]3CN(c4cnccn4)CCN3C2)cc1 (racemic) [Example 30, (7RS,9aSR)-7-Phenoxymethyl-2-(pyrazin-2-yl)-2,3,4,6,7,8,9,9a-octahydro-1H-pyrido[1,2-a]pyrazine] | 217 to 219 °C
Clc1ccc(N2CCN3C[C@H](COc4ccccc4)CC[C@H]3C2)nn1 (racemic) [Example 33, (7RS,9aSR)-7-Phenoxymethyl-2-(6-chloropyridazin-3-yl)-2,3,4,6,7,8,9,9a-octahydro-1H-pyrido[1,2-a]pyrazine] | > 265 °C (dec.)
Nc1cc(F)ccc1N1CCN2C[C@H](COc3ccc(F)cc3)CC[C@H]2C1 [Example 24, (7R,9aS)-7-(4-Fluorophenoxy)methyl-2-(2-amino-4-fluorophenyl)-2,3,4,6,7,8,9,9a-octahydro-1H-pyrido[1,2-a]pyrazine] | 144 to 149 °C
CSc1nc(N2CCN3CC(COc4ccc(F)cc4)CCC3C2)ncc1F (stereo not drawn) [Example 6, (7RS,9aSR)-7-(4-Fluorophenoxy)methyl-2-(5-fluoro-4-thiomethyl-pyrimidin-2-yl)-2,3,4,6,7,8,9,9a-octahydro-1H-pyrido[1,2-a]pyrazine] | 201 to 210 °C
CSc1nc(N2CCN3CC(COc4ccccc4)CCC3C2)ncc1F (stereo not drawn) [Example 4, (7RS,9aSR)-7-Phenoxymethyl-2-(5-fluoro-4-thiomethylpyrimidin-2-yl)-2,3,4,6,7,8,9,9a-octahydro-1H-pyrido[1,2-a]pyrazine] | 192 to 198 °C
Fc1cnc(N2CCN3C[C@H](CCc4ccccc4)CC[C@H]3C2)nc1 [Example 12, (7R,9aS)-7-(2-Phenyl)ethyl-2-(5-fluoropyrimidin-2-yl)-2,3,4,6,7,8,9,9a-octahydro-1H-pyrido[1,2-a]pyrazine] | 250 to 252 °C
Fc1ccc(SC[C@@H]2CCC3CN(c4ncccn4)CCN3C2)cc1 (some centres unmarked) [Example 41] | 99 to 101 °C
O=c1oc2ccccc2n1C[C@@H]1CC[C@H]2CN(c3ccc(Cl)cn3)CCN2C1 [Example 39, 3-[(7R,9aS)-2-(5-Chloropyridin-2-yl)-2,3,4,6,7,8,9,9a-octahydro-1H-pyrido[1,2-a]-pyrazin-7-ylmethyl]-3H-benzoxazol-2-one] | 247 to 248 °C
Fc1ccc(OC[C@@H]2CC[C@H]3CN(c4cccnn4)CCN3C2)cc1 (racemic) (as salt: sulfate) [Example 35, (7RS,9aSR)-7-(4-Fluorophenoxy)methyl-2-(pyridazin-3-yl)-2,3,4,6,7,8,9,9a-octahydro-1H-pyrido[1,2-a]pyrazine] | 246 to 250 °C
Fc1ccc(OC[C@@H]2CC[C@H]3CN(c4ccc(Cl)nn4)CCN3C2)cc1 [Example 20, (7R,9aS)-7-(4-Fluorophenoxy)methyl-2-(6-chloropyridazin-3-yl)-2,3,4,6,7,8,9,9a-octahydro-1H-pyrido[1,2-a]pyrazine] | 265 to 270 °C
Fc1ccc(OC[C@@H]2CC[C@H]3CN(c4ncc(Cl)cc4Cl)CCN3C2)cc1 (racemic) [Example 15, (7RS,9aSR)-7-(4-Fluorophenoxy)methyl-2-(3,5-dichloropyridin-2-yl)-2,3,4,6,7,8,9,9a-octahydro-1H-pyrido[1,2-a]pyrazine] | 247 to 248 °C
Clc1ccc(N2CCN3C[C@H](COc4ccccc4)CC[C@H]3C2)nc1 (racemic) [Example 17, (7RS,9aSR)-7-Phenoxymethyl-2-(5-chloropyridin-2-yl)-2,3,4,6,7,8,9,9a-octahydro-1H-pyrido[1,2-a]pyrazine] | 218 to 224 °C
Clc1nccc(N2CCN3C[C@H](COc4ccccc4)CC[C@H]3C2)n1 (racemic) [Example 29, (7RS,9aSR)-7-Phenoxymethyl-2-(2-chloropyrimidin-4-yl)-2,3,4,6,7,8,9,9a-octahydro-1H-pyrido[1,2-a]pyrazine] | 227 to 233 °C (dec.)
Fc1ccc(OC[C@@H]2CCC3CN(c4ccccc4)CCN3C2)cc1 (some centres unmarked) [Example 26] | 247 to 252 °C
Fc1cnc(N2CCN3C[C@H](COc4ccccc4)CC[C@H]3C2)nc1 (racemic) [Example 5, (7RS,9aSR)-7-Phenoxymethyl-2-(5-fluoropyrimidin-2-yl)-2,3,4,6,7,8,9,9a-octahydro-1H-pyrido[1,2-a]pyrazine] | 215 to 217 °C
O=S(=O)(C[C@@H]1CCC2CN(c3ncccn3)CCN2C1)c1ccc(F)cc1 (stereo partly drawn) [Example 42, (7RS,9aSR)-7-(4-Fluorophenylsulfonyl)methyl-2-(pyrmidin-2-yl)-2,3,4,6,7,8,9,9a-octahydro-1H-pyrido[1,2-a]pyrazine] | 155 to 157 °C
Fc1ccc2c(ccn2C[C@@H]2CC[C@H]3CN(c4ncccn4)CCN3C2)c1 (racemic) [Example 40, (7RS,9aSR)-7-(5-Fluoroindol-1-ylmethyl)-2-(pyrimidin-2-yl)-2,3,4,6,7,8,9,9a-octahydro-1H-pyrido[1,2-a]pyrazine] | 70 to 72 °C
